Reference: patent publication US9566351B2, “Molecular containers and methods of making and using same” (University of Maryland, College Park, priority 2010, dated 2017)
Read-outs that look alike come from different tables or passages of the source.

Experiments:
[1] = tested on: SKHEP-1 (human liver adenocarcinoma) xenografts; conditions: ABZ in sesame oil; xenografts on the flank of mice; cited from earlier work
[2] = drug with Motor1; 20 mM sodium phosphate buffer (pH=7.4); phase diagram
[3] = Swiss Webster, mouse, in vivo
[4] = Swiss Webster, mouse, in vivo, iv, 3.2 mg/kg
SK-OV-3 cells = conditions: ABZ formulated in ethanol; cited from earlier work
[5] = mice; repeated oral dosing of 30-40 mg/kg/day for 4-90 days; cited from earlier work
glioblastoma multiforme = conditions: daily oral doses (50 and 150 mg/kg) of ABZ tablets mixed with 50% sesame oil; cited from earlier work
[6] = tested on: OVCAR-3 (human ovarian adenocarcinoma); conditions: 150 mg/kg of ABZ 3 times a week for 4 weeks through IP; cited from earlier work
[7] = Phase-solubility of pharmaceutical agents with Motor2 (1H NMR); conditions: drug solubilized with Motor2; 20 mM sodium phosphate buffer (pH=7.4); phase diagram
in vivo [8] = conditions: Swiss Webster, mouse, iv, plasma concentration
in vivo [9] = conditions: Swiss Webster, mouse, ip, plasma concentration

In the case of CCCSc1ccc2nc(NC(=O)OC)[nH]c2c1 [Albendazole], the “daily oral dose required to see an antitumor effect” value [1] is given as 300 mg/kg, the Solubility enhancement [2] is given as 226 fold and the “Absolute Bioavailability (%)” value [3] is given as 78%. The “tmax” value ([3]; ip, 3.2 mg/kg) was 4.98 min, the “tmax” value [4] was 4.98 min and the IC50 (SK-OV-3 cells) was 3.88 µM. For the same compound, the signs of toxicity [5] was “no significant signs of toxicity”, the mouse survival (glioblastoma multiforme) was “moderate improvements in mouse survival” and the “effect on malignant ascites” value [6] was “suppression of malignant ascites”. The Solubility enhancement [7] was 149 fold, the concentration at 5 min (in vivo [8]) was 1.91 µg/mL and the concentration at 15 min (in vivo [8]) was 0.606 µg/mL. It also gave a concentration at 15 min (in vivo [9]) of 0.38 µg/mL, a concentration at 30 min (in vivo [9]) of 0.292 µg/mL and a concentration at 2 h (in vivo [9]) of 0.122 µg/mL.
